In patent publication US20110306639A1, “HYDROCARBYLIDENE NITROHYDROZINECARBOXIMIDAMIDES AND A METHOD FOR MAKING THE SAME, AS WELL AS THEIR USES AS AN INSECTICIDE” (priority 2008, published 2011):
Where two headings read alike, the source gives them in different places.

Assays:
asparagus caterpillar = conditions: in vivo
myzus persicae = conditions: in vivo

CC(C)C=NNC(=N[N+](=O)[O-])NCc1ccc(Cl)nc1 [Compound 8]
mortality(%) asparagus caterpillar (500 μg/mL) (asparagus caterpillar): 40%
mortality(%) Helicoverpa armigera (500 μg/mL) (Helicoverpa armigera; in vivo): 60%
mortality(%) myzus persicae (600 μg/mL) (myzus persicae): 87.0%

CCCCCCC=NNC(=N[N+](=O)[O-])NCCCC [Compound 46]
mortality(%) asparagus caterpillar (500 μg/mL) (asparagus caterpillar): 30%
mortality(%) Helicoverpa armigera (500 μg/mL) (Helicoverpa armigera; 500 μg/mL, 48 hours): 20%

C#CCNC(=N[N+](=O)[O-])NN=Cc1ccccc1OC [Compound 77]
mortality(%) asparagus caterpillar (500 μg/mL) (asparagus caterpillar): 50%
mortality(%) Helicoverpa armigera (500 μg/mL) (Helicoverpa armigera; 500 μg/mL, 48 hours): 30%
mortality(%) myzus persicae (600 μg/mL) (myzus persicae): 4.2%

C=CCNC(=N[N+](=O)[O-])NN=CC=CC [Compound 35]
mortality(%) asparagus caterpillar (500 μg/mL) (asparagus caterpillar): 60%
mortality(%) Helicoverpa armigera (500 μg/mL) (Helicoverpa armigera; 500 μg/mL, 48 hours): 20%
mortality(%) myzus persicae (600 μg/mL) (myzus persicae): 56.7%

CCCCNC(=N[N+](=O)[O-])NN=CC(C)C [Compound 4]
mortality(%) asparagus caterpillar (500 μg/mL) (asparagus caterpillar): 20%
mortality(%) Helicoverpa armigera (500 μg/mL) (Helicoverpa armigera; 500 μg/mL, 48 hours): 10%
mortality(%) myzus persicae (600 μg/mL) (myzus persicae): 31.6%

CC=CC=NNC(=N[N+](=O)[O-])NCc1ccccc1 [Compound 37]
mortality(%) asparagus caterpillar (500 μg/mL) (asparagus caterpillar): 20%
mortality(%) Helicoverpa armigera (500 μg/mL) (Helicoverpa armigera; 500 μg/mL, 48 hours): 70%

CCCC=NNC(=N[N+](=O)[O-])NCCCC [Compound 26]
mortality(%) asparagus caterpillar (500 μg/mL) (asparagus caterpillar): 60%
mortality(%) Helicoverpa armigera (500 μg/mL) (Helicoverpa armigera; 500 μg/mL, 48 hours): 20%
mortality(%) myzus persicae (600 μg/mL) (myzus persicae): 65.3%

COc1ccccc1C=NNC(=N[N+](=O)[O-])NCc1ccccc1 [Compound 75]
mortality(%) asparagus caterpillar (500 μg/mL) (asparagus caterpillar): 90%
mortality(%) Helicoverpa armigera (500 μg/mL) (Helicoverpa armigera; 500 μg/mL, 48 hours): 30%
mortality(%) myzus persicae (600 μg/mL) (myzus persicae): 92.8%

CCCCCCC=NNC(=N[N+](=O)[O-])NCCC [Compound 45]
mortality(%) asparagus caterpillar (500 μg/mL) (asparagus caterpillar): 20%
mortality(%) Helicoverpa armigera (500 μg/mL) (Helicoverpa armigera; 500 μg/mL, 48 hours): 20%
mortality(%) myzus persicae (600 μg/mL) (myzus persicae): 16.9%

CC(C)=CCCC(C)=CC=NNC(=N[N+](=O)[O-])NCc1ccc(Cl)nc1 [Compound 23]
mortality(%) asparagus caterpillar (500 μg/mL) (asparagus caterpillar): 40%
mortality(%) Helicoverpa armigera (500 μg/mL) (Helicoverpa armigera; in vivo): 30%
mortality(%) myzus persicae (600 μg/mL) (myzus persicae): 19.8%

C=CCNC(=N[N+](=O)[O-])NN=Cc1ccccc1OC [Compound 76]
mortality(%) asparagus caterpillar (500 μg/mL) (asparagus caterpillar): 80%
mortality(%) Helicoverpa armigera (500 μg/mL) (Helicoverpa armigera; 500 μg/mL, 48 hours): 40%
mortality(%) myzus persicae (600 μg/mL) (myzus persicae): 3.4%

C#CCNC(=N[N+](=O)[O-])NN=Cc1ccc(F)cc1 [Compound 102]
mortality(%) asparagus caterpillar (500 μg/mL) (asparagus caterpillar): 50%
mortality(%) Helicoverpa armigera (500 μg/mL) (Helicoverpa armigera; in vivo): 50%
mortality(%) myzus persicae (600 μg/mL) (myzus persicae): 31.6%

COc1ccccc1C=NNC(=N[N+](=O)[O-])NCc1ccc(Cl)nc1 [Compound 109]
mortality(%) asparagus caterpillar (500 μg/mL) (asparagus caterpillar): 90%
mortality(%) Helicoverpa armigera (500 μg/mL) (Helicoverpa armigera; in vivo): 40%

C=CC=NNC(=N[N+](=O)[O-])NCc1ccccc1 [Compound 44]
mortality(%) asparagus caterpillar (500 μg/mL) (asparagus caterpillar): 0%
mortality(%) Helicoverpa armigera (500 μg/mL) (Helicoverpa armigera; 500 μg/mL, 48 hours): 30%
mortality(%) myzus persicae (600 μg/mL) (myzus persicae): 45.8%

C#CCNC(=N[N+](=O)[O-])NN=CCCC [Compound 28]
mortality(%) asparagus caterpillar (500 μg/mL) (asparagus caterpillar): 70%
mortality(%) Helicoverpa armigera (500 μg/mL) (Helicoverpa armigera; 500 μg/mL, 48 hours): 60%
mortality(%) myzus persicae (600 μg/mL) (myzus persicae): 11.4%

CC=CC=NNC(=N[N+](=O)[O-])NCc1ccc(Cl)nc1 [Compound 38]
mortality(%) asparagus caterpillar (500 μg/mL) (asparagus caterpillar): 0%
mortality(%) Helicoverpa armigera (500 μg/mL) (Helicoverpa armigera; in vivo): 30%
mortality(%) myzus persicae (600 μg/mL) (myzus persicae): 1.2%

CCCC=NNC(=N[N+](=O)[O-])NCc1ccccc1 [Compound 29]
mortality(%) asparagus caterpillar (500 μg/mL) (asparagus caterpillar): 50%
mortality(%) Helicoverpa armigera (500 μg/mL) (Helicoverpa armigera; 500 μg/mL, 48 hours): 60%

CCCNC(=N[N+](=O)[O-])NN=CC(C)C [Compound 3]
mortality(%) asparagus caterpillar (500 μg/mL) (asparagus caterpillar): 20%
mortality(%) Helicoverpa armigera (500 μg/mL) (Helicoverpa armigera; 500 μg/mL, 48 hours): 30%
mortality(%) myzus persicae (600 μg/mL) (myzus persicae): 14.4%

C#CCNC(=N[N+](=O)[O-])NN=CC(C)C [Compound 6]
mortality(%) asparagus caterpillar (500 μg/mL) (asparagus caterpillar): 60%
mortality(%) Helicoverpa armigera (500 μg/mL) (Helicoverpa armigera; 500 μg/mL, 48 hours): 100%
mortality(%) myzus persicae (600 μg/mL) (myzus persicae): 37.9%

C=CCNC(=N[N+](=O)[O-])NN=Cc1ccc(F)cc1 [Compound 101]
mortality(%) asparagus caterpillar (500 μg/mL) (asparagus caterpillar): 30%
mortality(%) Helicoverpa armigera (500 μg/mL) (Helicoverpa armigera; in vivo): 40%
mortality(%) myzus persicae (600 μg/mL) (myzus persicae): 17.7%

CCC=NNC(=N[N+](=O)[O-])NCCC [Compound 10]
mortality(%) asparagus caterpillar (500 μg/mL) (asparagus caterpillar): 20%
mortality(%) Helicoverpa armigera (500 μg/mL) (Helicoverpa armigera; 500 μg/mL, 48 hours): 80%
mortality(%) myzus persicae (600 μg/mL) (myzus persicae): 78.3%

C=CC=NNC(=N[N+](=O)[O-])NCCC [Compound 40]
mortality(%) asparagus caterpillar (500 μg/mL) (asparagus caterpillar): 20%
mortality(%) Helicoverpa armigera (500 μg/mL) (Helicoverpa armigera; 500 μg/mL, 48 hours): 30%
mortality(%) myzus persicae (600 μg/mL) (myzus persicae): 8.3%

CCCNC(=N[N+](=O)[O-])NN=CC=C(C)CCC=C(C)C [Compound 18]
mortality(%) asparagus caterpillar (500 μg/mL) (asparagus caterpillar): 60%
mortality(%) Helicoverpa armigera (500 μg/mL) (Helicoverpa armigera; in vivo): 50%

CC=CC=NNC(=N[N+](=O)[O-])NCC [Compound 32]
mortality(%) asparagus caterpillar (500 μg/mL) (asparagus caterpillar): 0%
mortality(%) Helicoverpa armigera (500 μg/mL) (Helicoverpa armigera; 500 μg/mL, 48 hours): 0%
mortality(%) myzus persicae (600 μg/mL) (myzus persicae): 48.0%

C#CCNC(=N[N+](=O)[O-])NN=CCCCCCC [Compound 48]
mortality(%) asparagus caterpillar (500 μg/mL) (asparagus caterpillar): 0%
mortality(%) Helicoverpa armigera (500 μg/mL) (Helicoverpa armigera; 500 μg/mL, 48 hours): 30%
mortality(%) myzus persicae (600 μg/mL) (myzus persicae): 13.0%

O=[N+]([O-])N=C(NCc1ccccc1)NN=Cc1ccccc1Cl [Compound 92]
mortality(%) asparagus caterpillar (500 μg/mL) (asparagus caterpillar): 70%
mortality(%) Helicoverpa armigera (500 μg/mL) (Helicoverpa armigera; in vivo): 50%
mortality(%) myzus persicae (600 μg/mL) (myzus persicae): 45.8%
